Test results: patent US4666924A, “Certain pyridyl substituted aminomethyl benzene derivatives having anti-arrhythmic activity” (priority 1984, dated 1987)
Where two headings read alike, the source gives them in different places.

Assays:
[1] = test system: Harris dog (ventricular arrhythmias); assay: Antiarrhythmic activity by coronary ligation in the Harris dog model; assay type: in vivo, adult mongrel dogs; details: for minimal effective dose: Canis lupus familiaris, 5 min, read-out: Antiarrhythmic ED in Harris Dog (effective dose required to sustain normal sinus rhythm)
Text: The following examples describe the pharmacological evaluation of the compounds made in accordance with the present invention. In particular, these examples describe the evaluation of antiarrhythmic activity by coronary ligation in the well known Harris dog model. Ventricular arrhythmias were induced in adult mongrel dogs (10-15 kg) of either sex by two-state ligation of the left anterior descending coronary artery. […] The test compound in saline was infused intravenously at a cumulative rate of 0.3 mg/kg/min (base) until normal sinus rhythm or toxicity occurred. Normal sinus rhythm was defined as 90-100% normal complexes over a 5 min period.

[2] = test system: guinea pig ileum; assay: In vitro anticholinergic activity in the isolated guinea pig ileum (field stimulation); assay type: cell-based, male Hartley guinea pigs; details: for inhibition at 4 µg/mL: Cavia porcellus, read-out: Anticholinergic Inhibition of Guinea Pig Ileum
Description: The following examples describe the in vitro evaluation of anticholinergic activity in the isolated guinea pig ileum. Fasted, male Hartley guinea pigs (300-400 g) were killed by a blow to the head. […] One end of the ileal strip was impaled onto a platinum wire electrode; and the other end was tied to a stationary glass rod. Basal tension was set at 0.1-0.3 g and peak developed tension in response to field stimulation (100-150 V, 10 msec pulse duration, 0.2 Hz) was measured with a tension transducer.

[3] = test system: cardiac cells; details: cited from earlier work; for effects on impulse formation, conduction velocity and refractory period: cardiac cells
[4] = test system: patients; details: cited from earlier work
[5] = test system: vagal stimulation of the heart and peripheral parasympathetic stimulation; details: cited from earlier work
[6] = IV infusion in saline, cumulative rate 0.3 mg/kg/min (base), day after two-stage ligation of left anterior descending coronary artery, normal sinus rhythm = 90-100% normal complexes over 5 min
[7] = at 4 mg/L, field stimulation 100-150 V, 10 msec, 0.2 Hz
[8] = patients, management of arrhythmias

## C=C[C@H]1C[N@@]2CC[C@H]1C[C@@H]2[C@@H](O)c1ccnc2ccc(OC)cc12 (stereo in doubt) [Quinidine, 6-methoxy-α-(5'-vinyl-2-quinuclidinyl)-4-quindinemethanol]
[1]; [6]
  minimal effective dose: 10.1 mg/kg
[2]; [7]
  inhibition at 4 µg/mL: 62%
[3]
  effects on impulse formation, conduction velocity and refractory period: depress impulse formation, slow conduction velocity, and increase the duration of the refractory period of cardiac cells
[4]; human, in vivo
  adverse side-effects: cardiotoxicity, diarrhea, nausea, vomiting, fever, hypertension and depression of myocardial contractility
[5]
  anticholinergic action: indirect anticholinergic actions

## Oc1c(CN2CCCC2)cc(Nc2ncnc3ccccc23)cc1CN1CCCC1 [Changrolin, 4-[3',5'-bis[N-pyrolidinylmethyl]-4'-hydroxyanilino]-quinazoline]
[1]; [6]
  minimal effective dose: 10.3 mg/kg
[2]; [7]
  inhibition at 4 µg/mL: 43%
[3]; background statement
  antiarrhythmic effectiveness of known agent: effective antiarrhythmic agent
[4]; [8]
  adverse side-effects: skin discoloration in some patients
[5]
  anticholinergic action: substantial anticholinergic activity

## CC(C)N(CCC(C(N)=O)(c1ccccc1)c1ccccn1)C(C)C (stereo not drawn) [Disopyramide, α[2-(diisopropylamino)-ethyl]α-phenol-2-pyridineacetamide]
[1]; iv
  minimal effective dose: 6.8 mg/kg
[2]
  inhibition at 4 µg/mL: 81%
[3]
  effects on impulse formation, conduction velocity and refractory period: depress impulse formation, slow conduction velocity, and increase the duration of the refractory period of cardiac cells
[4]; [8]
  adverse side-effects: dryness of the mouth, blurred vision, constipation, and urinary retention, and depression of myocardial contractility
[5]
  anticholinergic action: indirect anticholinergic actions

## Nc1cc(CN2CCCC2)c(O)c(CN2CCCC2)c1 [Example I, 3,5-bis(N-pyrrolidinylmethyl)-4-hydroxyaniline]
[1]; [6]
  Antiarrhythmic ED in Harris Dog (effective dose required to sustain normal sinus rhythm): inactive
[2]; [7]
  inhibition at 4 µg/mL: 3%

## Oc1ccc(Nc2ncnc3ccccc23)cc1 [Example II, 4-(4'-hydroxyanilino)-quinazoline]
[1]; [6]
  Antiarrhythmic ED in Harris Dog (effective dose required to sustain normal sinus rhythm): inactive
[2]; [7]
  inhibition at 4 µg/mL: 13%

## Oc1ccc(Nc2nncc3ccccc23)cc1 [Example III, 1-(4'-hydroxyanilino)phthalazine]
[1]; [6]
  Antiarrhythmic ED in Harris Dog (effective dose required to sustain normal sinus rhythm): inactive
[2]; [7]
  inhibition at 4 µg/mL: 23%

## Oc1c(CN2CCCC2)cc(Nc2nncc3ccccc23)cc1CN1CCCC1 [Example IV, 1[3',5'-bis[N-pyrrolidinylmethyl]-4'-hydroxyanilino]-phthalazine]
[1]; [6]
  minimal effective dose: 1.5 mg/kg
[2]; [7]
  inhibition at 4 µg/mL: 83%

## Oc1c(CN2CCCC2)cc(Nc2nnc(Cl)c3ccccc23)cc1CN1CCCC1 [Example V, 1-N-[3',5'-bis(N-pyrrolidinylmethyl)-4'-hydroxyanilino]-4-chlorophthalazine]
[1]; [6]
  minimal effective dose: 2.5 mg/kg
[2]; [7]
  inhibition at 4 µg/mL: 76%

## Oc1c(CN2CCCC2)cc(Nc2ccc(Cl)nn2)cc1CN1CCCC1 [Example X, 3-N-[3',5'-bis(N-pyrrolidinylmethyl)-4'-hydroxyanilino]-6-chloropyridazine]
[1]; [6]
  minimal effective dose: 10.5 mg/kg
[2]; [7]
  inhibition at 4 µg/mL: 40%

## Oc1c(CN2CCCC2)cc(Nc2ncccn2)cc1CN1CCCC1 [Example XI, 2-N-[3',5'-bis(pyrrolidinylmethyl)-4'-hydroxyanilino]-pyrimidine]
[1]; [6]
  Antiarrhythmic ED in Harris Dog (effective dose required to sustain normal sinus rhythm): low activity
[2]; [7]
  inhibition at 4 µg/mL: 6%

## Cc1cc(Nc2cc(CN3CCCC3)c(O)c(CN3CCCC3)c2)c2ccccc2n1 [Example XIV, 2-methyl-4-[3',5'-bis(N-pyrrolidinylmethyl)]-4'-hydroxyanilinoquinoline]
[1]; [6]
  minimal effective dose: 9.5 mg/kg

## Oc1c(CN2CCCC2)cc(Nc2ccnc3cc(Cl)ccc23)cc1CN1CCCC1 [Example XV, 4-[3',5'-bis(N-pyrrolidinylmethyl)-4'-hydroxyanilino]-7-chloroquinoline]
[1]; [6]
  Antiarrhythmic ED in Harris Dog (effective dose required to sustain normal sinus rhythm): low activity
[2]; [7]
  inhibition at 4 µg/mL: 27%

## Oc1c(CN2CCCC2)cc(Nc2ccnc3ccccc23)cc1CN1CCCC1 [Example XVI, 4-[3',5'-bis(N-pyrrolidinylmethyl)-4'-hydroxyanilino]-quinoline]
[1]; [6]
  Antiarrhythmic ED in Harris Dog (effective dose required to sustain normal sinus rhythm): low activity
[2]; [7]
  inhibition at 4 µg/mL: 19%

## Oc1c(CN2CCCC2)cc(Nc2ccc3ccccc3n2)cc1CN1CCCC1 [Example XVII, 2-[3',5'-bis(N-pyrrolidinylmethyl)-4'-hydroxyanilino]-quinoline]
[1]; [6]
  minimal effective dose: 6 mg/kg
[2]; [7]
  inhibition at 4 µg/mL: 50%

## CN(C)Cc1cc(Nc2nncc3ccccc23)cc(CN(C)C)c1O [IX]
[1]; [6]
  minimal effective dose: 14 mg/kg
[2]; [7]
  inhibition at 4 µg/mL: 14%

## Oc1ccc(Nc2nnc(Cl)c3ccccc23)cc1CN1CCCC1 [VI, 1-N-[3'-N-pyrrolidinylmethyl-4'-hydroxyanilino]-4-chlorophthalazine]
[1]; [6]
  minimal effective dose: 17 mg/kg
[2]; [7]
  inhibition at 4 µg/mL: 65%

## COc1nnc(Nc2cc(CN3CCCC3)c(O)c(CN3CCCC3)c2)c2ccccc12 [VII, 1-N-[3',5'-bis(pyrrolidinylmethyl)-4'-hydroxyanilino]-4-methoxyphthalazine]
[1]; [6]
  Antiarrhythmic ED in Harris Dog (effective dose required to sustain normal sinus rhythm): low activity
[2]; [7]
  inhibition at 4 µg/mL: 84%

## Oc1c(CN2CCCC2)cc(Nc2nccc3ccccc23)cc1CN1CCCC1 [VIII, 1-N-[3',5'-bis(pyrrolidinylmethyl)-4'-hydroxyanilino]-isoquinoline]
[1]; [6]
  minimal effective dose: 1.1 mg/kg
[2]; [7]
  Anticholinergic Inhibition of Guinea Pig Ileum: active

## COc1cc2c(Nc3cc(CN4CCCC4)c(O)c(CN4CCCC4)c3)ncnc2c(OC)c1OC [XII, 4-[3',5'-bis(pyrrolidinylmethyl)-4'-hydroxyanilino]-6,7,8-trimethoxyquinazoline]
[2]; [7]
  inhibition at 4 µg/mL: 14%

## Oc1c(CN2CCCC2)cc(Nc2ccnc3cc(C(F)(F)F)ccc23)cc1CN1CCCC1 [XIII, 4-[3',5'-bis(N-pyrrolidinylmethyl)-4'-hydroxyanilino]-7-trifluoromethylquinoline]
[1]; [6]
  minimal effective dose: 3 mg/kg
[2]; [7]
  inhibition at 4 µg/mL: 36%

## Oc1c(CN2CCCC2)cc(CNc2nnc(Cl)c3ccccc23)cc1CN1CCCC1 [XIX, 1-N-[3',5'-bis(N-pyrrolidinylmethyl)-4'-hydroxybenzylamino]-4-chlorophthalazine]
[1]; [6]
  minimal effective dose: 4.5 mg/kg
[2]; [7]
  inhibition at 4 µg/mL: 78%

## Oc1ccc(Nc2ccc3ccccc3n2)cc1CN1CCCC1 [XVIII, 2-[3'-(N-pyrrolidinylmethyl)-4'-hydroxyanilino]-quinoline]
[1]; [6]
  minimal effective dose: 11 mg/kg
[2]; [7]
  inhibition at 4 µg/mL: 72%

## Clc1nnc(Nc2cc(CN3CCCC3)cc(CN3CCCC3)c2)c2ccccc12 [XXI]
[1]; [6]
  minimal effective dose: 3 mg/kg
[2]; [7]
  inhibition at 4 µg/mL: 93%

## Oc1c(CN2CCCC2)cc(Nc2ccncc2)cc1CN1CCCC1 [XX]
[1]; [6]
  minimal effective dose: 8 mg/kg
[2]; [7]
  inhibition at 4 µg/mL: 5%
